Experiments:
Type in all cases: cell-based
[1] = molecular target: proteins of HEK293T cells transiently overexpressing caspase-6 (Homo sapiens, UniProt P07237); conditions: protein P4HB (P07237)
[2] = molecular target: proteins of HEK293T cells transiently overexpressing caspase-6 (Homo sapiens, UniProt P08670)
[3] = molecular target: proteins of HEK293T cells transiently overexpressing caspase-6 (Homo sapiens, UniProt P10155); conditions: Probe; protein TROVE2 P10155
[4] = molecular target: proteins of HEK293T cells transiently overexpressing caspase-6 (Homo sapiens, UniProt P13804); conditions: exp_ref Probe; protein ETFA (P13804); analysis C6
Sequence of proteins of HEK293T cells transiently overexpressing caspase-6 (Homo sapiens, UniProt P13804) (P13804 20-333): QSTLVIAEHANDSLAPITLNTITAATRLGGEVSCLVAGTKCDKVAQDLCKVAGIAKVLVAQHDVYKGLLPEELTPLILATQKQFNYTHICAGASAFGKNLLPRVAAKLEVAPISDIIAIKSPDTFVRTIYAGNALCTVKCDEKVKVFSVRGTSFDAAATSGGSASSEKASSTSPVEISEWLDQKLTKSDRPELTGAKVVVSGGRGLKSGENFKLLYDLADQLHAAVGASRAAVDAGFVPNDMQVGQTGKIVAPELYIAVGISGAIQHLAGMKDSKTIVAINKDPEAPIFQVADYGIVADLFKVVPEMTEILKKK

[5] = molecular target: proteins of HEK293T cells transiently overexpressing caspase-6 (Homo sapiens, UniProt P14618); conditions: protein PKM (P14618)
Sequence of proteins of HEK293T cells transiently overexpressing caspase-6 (Homo sapiens, UniProt P14618) (P14618 whole entry): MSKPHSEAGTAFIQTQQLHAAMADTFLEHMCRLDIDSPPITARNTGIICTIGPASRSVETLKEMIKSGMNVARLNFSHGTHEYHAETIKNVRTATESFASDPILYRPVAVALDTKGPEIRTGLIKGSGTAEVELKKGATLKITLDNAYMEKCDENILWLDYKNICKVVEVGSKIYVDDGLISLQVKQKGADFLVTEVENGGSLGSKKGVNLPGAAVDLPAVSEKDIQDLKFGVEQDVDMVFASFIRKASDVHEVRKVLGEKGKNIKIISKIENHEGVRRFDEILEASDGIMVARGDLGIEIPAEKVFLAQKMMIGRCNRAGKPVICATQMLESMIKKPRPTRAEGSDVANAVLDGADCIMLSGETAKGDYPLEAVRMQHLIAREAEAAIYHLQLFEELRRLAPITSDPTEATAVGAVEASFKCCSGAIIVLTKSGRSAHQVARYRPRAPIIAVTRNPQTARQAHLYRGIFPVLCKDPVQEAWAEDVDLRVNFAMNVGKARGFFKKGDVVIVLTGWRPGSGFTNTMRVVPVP

[6] = molecular target: proteins of HEK293T cells transiently overexpressing caspase-6 (Homo sapiens, UniProt P22087); conditions: exp_ref Probe; protein FBL (P22087); analysis C6
Sequence of proteins of HEK293T cells transiently overexpressing caspase-6 (Homo sapiens, UniProt P22087) (P22087 whole entry): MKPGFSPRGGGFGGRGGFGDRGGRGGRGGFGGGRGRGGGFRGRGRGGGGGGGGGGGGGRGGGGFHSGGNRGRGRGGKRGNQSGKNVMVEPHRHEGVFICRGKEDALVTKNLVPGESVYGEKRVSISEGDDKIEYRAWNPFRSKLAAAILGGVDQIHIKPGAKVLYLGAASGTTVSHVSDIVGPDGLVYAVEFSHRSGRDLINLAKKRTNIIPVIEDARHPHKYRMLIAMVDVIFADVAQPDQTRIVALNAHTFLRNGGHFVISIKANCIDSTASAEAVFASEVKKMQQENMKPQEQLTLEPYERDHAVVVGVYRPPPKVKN

[7] = molecular target: proteins of HEK293T cells transiently overexpressing caspase-6 (Homo sapiens, UniProt P23246); conditions: exp_ref Probe; protein SFPQ (P23246); analysis C6
[8] = molecular target: proteins of HEK293T cells transiently overexpressing caspase-6 (Homo sapiens, UniProt P27694); conditions: Probe; protein RPA1 P27694
Sequence of proteins of HEK293T cells transiently overexpressing caspase-6 (Homo sapiens, UniProt P27694) (P27694 whole entry): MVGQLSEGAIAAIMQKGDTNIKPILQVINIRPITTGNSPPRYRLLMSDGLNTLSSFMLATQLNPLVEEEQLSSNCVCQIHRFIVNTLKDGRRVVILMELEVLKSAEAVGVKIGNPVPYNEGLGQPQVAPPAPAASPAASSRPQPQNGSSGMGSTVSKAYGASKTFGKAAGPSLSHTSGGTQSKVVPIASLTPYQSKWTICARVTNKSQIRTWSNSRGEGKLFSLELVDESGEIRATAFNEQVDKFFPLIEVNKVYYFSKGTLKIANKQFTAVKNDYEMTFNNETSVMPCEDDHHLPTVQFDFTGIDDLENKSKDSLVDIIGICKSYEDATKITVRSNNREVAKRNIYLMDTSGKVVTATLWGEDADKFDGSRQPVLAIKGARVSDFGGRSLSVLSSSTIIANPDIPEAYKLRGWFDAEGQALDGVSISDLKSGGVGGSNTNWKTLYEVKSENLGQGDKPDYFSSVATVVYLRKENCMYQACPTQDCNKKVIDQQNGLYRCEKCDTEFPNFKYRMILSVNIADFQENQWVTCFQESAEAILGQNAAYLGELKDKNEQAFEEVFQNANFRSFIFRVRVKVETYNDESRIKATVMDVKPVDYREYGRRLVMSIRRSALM

[9] = molecular target: proteins of HEK293T cells transiently overexpressing caspase-6 (Homo sapiens, UniProt P34932); conditions: Probe; protein HSPA4 P34932
Sequence of proteins of HEK293T cells transiently overexpressing caspase-6 (Homo sapiens, UniProt P34932) (P34932 whole entry): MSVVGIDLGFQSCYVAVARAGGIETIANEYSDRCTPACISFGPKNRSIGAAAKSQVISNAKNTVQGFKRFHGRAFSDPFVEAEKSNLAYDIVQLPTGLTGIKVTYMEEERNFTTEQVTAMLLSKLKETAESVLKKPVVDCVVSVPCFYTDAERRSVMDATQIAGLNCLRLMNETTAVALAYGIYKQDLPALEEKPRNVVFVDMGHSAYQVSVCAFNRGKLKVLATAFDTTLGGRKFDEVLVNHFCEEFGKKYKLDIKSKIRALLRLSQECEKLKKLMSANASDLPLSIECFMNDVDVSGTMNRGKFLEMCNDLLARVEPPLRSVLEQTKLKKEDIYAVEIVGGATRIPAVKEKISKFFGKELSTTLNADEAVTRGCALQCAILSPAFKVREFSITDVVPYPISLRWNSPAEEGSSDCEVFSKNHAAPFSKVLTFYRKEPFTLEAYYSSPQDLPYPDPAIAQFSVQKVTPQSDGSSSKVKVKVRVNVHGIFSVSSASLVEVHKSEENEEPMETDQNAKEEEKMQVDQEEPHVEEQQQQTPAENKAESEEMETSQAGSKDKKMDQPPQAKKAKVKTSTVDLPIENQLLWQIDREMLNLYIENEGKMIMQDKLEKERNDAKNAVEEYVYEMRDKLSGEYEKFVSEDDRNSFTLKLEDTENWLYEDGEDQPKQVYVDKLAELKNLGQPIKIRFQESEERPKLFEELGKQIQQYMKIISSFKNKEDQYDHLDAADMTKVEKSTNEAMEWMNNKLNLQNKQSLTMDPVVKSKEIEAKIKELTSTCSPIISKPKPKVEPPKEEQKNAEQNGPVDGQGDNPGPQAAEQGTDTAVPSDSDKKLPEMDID

[10] = molecular target: proteins of HEK293T cells transiently overexpressing caspase-6 (Homo sapiens, UniProt P49411); conditions: exp_ref Probe; protein TUFM (P49411); analysis C6
[11] = molecular target: T1, proteins of HEK293T cells transiently overexpressing caspase-6 (Homo sapiens, UniProt P50990); conditions: protein CCT8 (P50990)
T1 sequence (P50990 1-548): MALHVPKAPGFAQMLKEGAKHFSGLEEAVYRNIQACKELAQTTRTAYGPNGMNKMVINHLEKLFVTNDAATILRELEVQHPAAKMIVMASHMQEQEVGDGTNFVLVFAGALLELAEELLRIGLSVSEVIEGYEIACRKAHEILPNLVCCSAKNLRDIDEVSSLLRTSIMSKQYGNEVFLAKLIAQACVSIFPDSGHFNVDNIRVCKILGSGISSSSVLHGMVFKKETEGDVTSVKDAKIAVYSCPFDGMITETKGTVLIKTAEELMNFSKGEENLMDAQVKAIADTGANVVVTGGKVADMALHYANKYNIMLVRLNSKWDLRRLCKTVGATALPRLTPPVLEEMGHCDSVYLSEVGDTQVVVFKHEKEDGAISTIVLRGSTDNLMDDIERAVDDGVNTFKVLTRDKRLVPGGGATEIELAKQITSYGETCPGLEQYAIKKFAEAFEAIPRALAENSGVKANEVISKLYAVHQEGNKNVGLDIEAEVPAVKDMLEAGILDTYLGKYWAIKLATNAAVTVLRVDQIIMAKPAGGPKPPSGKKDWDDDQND

[12] = molecular target: proteins of HEK293T cells transiently overexpressing caspase-6 (Homo sapiens, UniProt P61978); conditions: protein HNRNPK (P61978)
[13] = molecular target: proteins of HEK293T cells transiently overexpressing caspase-6 (Homo sapiens, UniProt P63104); conditions: exp_ref Probe; protein YWHAZ (P63104); analysis C6
Sequence of proteins of HEK293T cells transiently overexpressing caspase-6 (Homo sapiens, UniProt P63104) (P63104 whole entry): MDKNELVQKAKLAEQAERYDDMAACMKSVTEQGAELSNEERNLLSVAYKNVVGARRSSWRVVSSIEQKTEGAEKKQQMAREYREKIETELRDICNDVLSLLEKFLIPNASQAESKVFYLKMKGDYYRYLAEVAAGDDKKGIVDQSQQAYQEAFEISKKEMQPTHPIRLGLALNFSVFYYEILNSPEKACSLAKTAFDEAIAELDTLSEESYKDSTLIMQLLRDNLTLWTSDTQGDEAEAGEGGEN

[14] = molecular target: proteins of HEK293T cells transiently overexpressing caspase-6 (Homo sapiens, UniProt Q02543); conditions: exp_ref Probe; protein RPL18A (Q02543); analysis C6
[15] = molecular target: proteins of HEK293T cells transiently overexpressing caspase-6 (Homo sapiens, UniProt Q14157); conditions: Probe; protein UBAP2L Q14157
[16] = molecular target: T2, proteins of HEK293T cells transiently overexpressing caspase-6 (Homo sapiens, UniProt Q96RQ3)
T2 sequence (Q96RQ3 42-725): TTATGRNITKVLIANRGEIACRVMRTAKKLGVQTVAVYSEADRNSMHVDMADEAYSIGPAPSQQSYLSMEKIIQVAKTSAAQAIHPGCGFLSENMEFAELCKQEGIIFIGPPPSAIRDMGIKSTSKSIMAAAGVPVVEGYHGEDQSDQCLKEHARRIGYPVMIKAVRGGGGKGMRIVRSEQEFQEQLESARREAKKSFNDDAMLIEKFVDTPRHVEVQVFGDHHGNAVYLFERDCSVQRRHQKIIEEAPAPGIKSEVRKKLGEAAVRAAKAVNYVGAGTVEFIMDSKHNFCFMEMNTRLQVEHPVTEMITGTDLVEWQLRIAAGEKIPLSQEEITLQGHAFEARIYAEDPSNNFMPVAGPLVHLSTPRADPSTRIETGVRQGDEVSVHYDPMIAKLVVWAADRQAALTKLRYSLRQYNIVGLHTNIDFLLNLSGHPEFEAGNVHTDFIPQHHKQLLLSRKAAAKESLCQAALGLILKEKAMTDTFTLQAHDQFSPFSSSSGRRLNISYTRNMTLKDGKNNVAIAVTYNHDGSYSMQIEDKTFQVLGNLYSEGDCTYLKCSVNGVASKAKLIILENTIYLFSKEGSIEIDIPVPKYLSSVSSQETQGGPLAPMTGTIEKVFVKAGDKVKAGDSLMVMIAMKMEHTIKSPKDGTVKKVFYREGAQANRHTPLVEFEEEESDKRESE

Sequence of proteins of HEK293T cells transiently overexpressing caspase-6 (Homo sapiens, UniProt P07237) (P07237 18-508): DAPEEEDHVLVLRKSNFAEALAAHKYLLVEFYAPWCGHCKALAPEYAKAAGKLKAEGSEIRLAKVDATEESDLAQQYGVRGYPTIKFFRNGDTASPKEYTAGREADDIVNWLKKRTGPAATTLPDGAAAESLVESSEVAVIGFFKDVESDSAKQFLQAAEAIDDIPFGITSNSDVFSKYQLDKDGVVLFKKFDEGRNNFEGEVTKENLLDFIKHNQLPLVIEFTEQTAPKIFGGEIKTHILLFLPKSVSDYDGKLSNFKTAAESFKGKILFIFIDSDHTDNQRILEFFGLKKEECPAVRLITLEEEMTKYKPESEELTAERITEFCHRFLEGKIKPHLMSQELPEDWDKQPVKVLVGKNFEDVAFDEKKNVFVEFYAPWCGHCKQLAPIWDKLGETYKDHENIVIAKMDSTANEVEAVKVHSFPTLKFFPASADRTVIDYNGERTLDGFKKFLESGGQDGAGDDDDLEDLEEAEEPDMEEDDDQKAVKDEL
Sequence of proteins of HEK293T cells transiently overexpressing caspase-6 (Homo sapiens, UniProt P08670) (P08670 whole entry): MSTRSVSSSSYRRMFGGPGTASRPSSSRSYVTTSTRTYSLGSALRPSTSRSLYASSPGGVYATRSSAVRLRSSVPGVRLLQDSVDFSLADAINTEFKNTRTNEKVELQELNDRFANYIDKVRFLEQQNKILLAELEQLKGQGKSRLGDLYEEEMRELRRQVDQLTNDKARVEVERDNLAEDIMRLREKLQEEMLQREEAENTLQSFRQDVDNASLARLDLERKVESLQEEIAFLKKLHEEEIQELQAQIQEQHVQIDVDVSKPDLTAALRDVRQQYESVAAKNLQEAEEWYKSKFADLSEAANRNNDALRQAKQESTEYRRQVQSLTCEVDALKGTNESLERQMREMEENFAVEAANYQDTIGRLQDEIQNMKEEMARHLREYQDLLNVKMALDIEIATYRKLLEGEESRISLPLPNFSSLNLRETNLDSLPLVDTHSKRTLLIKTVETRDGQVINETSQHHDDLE
Sequence of proteins of HEK293T cells transiently overexpressing caspase-6 (Homo sapiens, UniProt P10155) (P10155 whole entry): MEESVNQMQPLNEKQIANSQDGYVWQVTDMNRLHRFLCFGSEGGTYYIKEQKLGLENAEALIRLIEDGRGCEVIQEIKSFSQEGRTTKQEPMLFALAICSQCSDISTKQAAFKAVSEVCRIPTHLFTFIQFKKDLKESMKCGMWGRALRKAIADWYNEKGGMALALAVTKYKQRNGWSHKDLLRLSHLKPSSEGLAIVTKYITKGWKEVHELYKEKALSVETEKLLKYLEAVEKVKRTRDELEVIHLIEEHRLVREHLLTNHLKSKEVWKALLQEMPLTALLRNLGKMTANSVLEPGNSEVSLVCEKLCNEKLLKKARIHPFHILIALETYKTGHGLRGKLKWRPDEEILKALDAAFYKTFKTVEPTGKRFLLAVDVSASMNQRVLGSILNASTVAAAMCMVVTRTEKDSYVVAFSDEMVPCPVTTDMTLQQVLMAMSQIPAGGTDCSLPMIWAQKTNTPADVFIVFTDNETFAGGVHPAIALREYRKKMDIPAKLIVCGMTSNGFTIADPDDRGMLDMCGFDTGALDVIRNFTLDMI

## C#CCOc1ccc([C@@H]2C[C@@H](C(=O)Nc3ccc(OC(F)(F)F)cc3)CN(S(=O)(=O)C=C)C2)cc1 (relative stereo) [13-t]
[1]
  enrich.exp.med.lin: 4.024
  enrich.exp.med.log2: 2.009
[1]; exp_ref Probe, analysis C6
  enrich.exp.med: 2.009
[2]; Probe, protein VIM P08670
  enrich.exp.med: -1.006
[2]; protein VIM (P08670)
  enrich.exp.med.lin: 0.4978
  enrich.exp.med.log2: -1.006
[3]
  enrich.exp.med: -1.006
[4]
  enrich.exp.med: 0.5734
[5]; exp_ref Probe, analysis C6
  enrich.exp.med: 0.4939
[5]
  enrich.exp.med.lin: 1.408
  enrich.exp.med.log2: 0.4939
[6]
  enrich.exp.med: 0.8492
[7]
  enrich.exp.med: -0.1094
[8]
  enrich.exp.med: -1.323
[9]
  enrich.exp.med: -1.079
[10]
  enrich.exp.med: 0.04694
[11]; exp_ref Probe, analysis C6
  enrich.exp.med: 0.932
[11]
  enrich.exp.med.lin: 1.908
  enrich.exp.med.log2: 0.932
[12]; exp_ref Probe, analysis C6
  enrich.exp.med: 0.3594
[12]
  enrich.exp.med.lin: 1.283
  enrich.exp.med.log2: 0.3594
[13]
  enrich.exp.med: 0.8069
[14]
  enrich.exp.med: -0.1551
[15]
  enrich.exp.med: -0.84
[16]; Probe, protein MCCC1 Q96RQ3
  enrich.exp.med: -2.028
[16]; protein MCCC1 (Q96RQ3)
  enrich.exp.med.lin: 0.2451
  enrich.exp.med.log2: -2.028

— paper PMC10176470, “Engaging a Non-catalytic Cysteine Residue Drives Potent and Selective Inhibition of Caspase-6” (Journal of the American Chemical Society, 2023)
